# Patent publication US7288659B2, “Acylaminothiazole derivatives, their preparation and therapeutic use” (Sanofi-Aventis, priority 2001, dated 2007)
row,SMILES,melting point [°C]
1,"Cc1cccc(CC(=O)N[C@@H](C)C(=O)Nc2ncc(-c3ccccc3COC3CCCCC3)s2)c1 [compound 16, (2S)-N-(5-{2-[(cyclohexyloxy)methyl]phenyl}-1,3-thiazol-2-yl)-2-{[2-(3-methylphenyl)acetyl]amino}-propanamide]",98
2,"Cc1ccc(CC(=O)N[C@@H](C)C(=O)Nc2ncc(-c3ccccc3COC3CCCCC3)s2)cc1 [compound 17, (2S)-N-(5-{2-[(cyclohexyloxy)methyl]phenyl}-1,3-thiazol-2-yl)-2-{[2-(4-methylphenyl)acetyl]amino}-propanamide]",239
3,"C[C@H](NC(=O)Cc1cccc(Cl)c1)C(=O)Nc1ncc(-c2ccccc2COC2CCCCC2)s1 [compound 18, (2S)-2-{[2-(3-chlorophenyl)acetyl]amino}-N-{5-{2-[(cyclohexyloxy)methyl]phenyl}-1,3-thiazol-2-yl}propanamide]",96
4,"C[C@H](NC(=O)Cc1cccc(F)c1)C(=O)Nc1ncc(-c2ccccc2COC2CCCCC2)s1 [compound 19, (2S)-N-(5-{2-[(cyclohexyloxy)methyl]phenyl}-1,3-thiazol-2-yl)-2-{[2-(3-fluorophenyl)acetyl]amino}-propanamide]",98
5,"C[C@H](NC(=O)Cc1ccc(F)cc1)C(=O)Nc1ncc(-c2ccccc2COC2CCCCC2)s1 [compound 20, (2S)-N-(5-{2-[(cyclohexyloxy)methyl]phenyl}-1,3-thiazol-2-yl)-2-{[2-(4-fluorophenyl)acetyl]amino}-propanamide]",70
6,"C[C@H](NC(=O)Cc1cc(F)cc(F)c1)C(=O)Nc1ncc(-c2ccccc2COc2ccccc2)s1 [compound 21, (2S)-2-{[2-(3,5-difluorophenyl)acetyl]amino}-N-{5-[2-(phenoxymethyl)phenyl]-1,3-thiazol-2-yl}propanamide]",78
7,"CC(C)OCc1ccccc1-c1cnc(NC(=O)[C@H](C)NC(=O)Cc2cc(F)cc(F)c2)s1 [compound 22, (2S)-2-{[2-(3,5-difluorophenyl)acetyl]amino}-N-{5-[2-(isopropoxymethyl)phenyl]-1,3-thiazol-2-yl}propanamide]",136
8,"Cc1nc(NC(=O)[C@H](C)NC(=O)Cc2cc(F)cc(F)c2)sc1-c1ccccc1COC1CCCCC1 [compound 23, (2S)-N-(5-{2-[(cyclohexyloxy)methyl]phenyl}-4-methyl-1,3-thiazol-2-yl)-2-{[2-(3,5-difluorophenyl)-acetyl]amino}propanamide]",85
9,"C[C@H](NC(=O)Cc1cc(F)cc(F)c1)C(=O)Nc1ncc(-c2cccc(COC3CCCCC3)c2)s1 [compound 24, (2S)-N-(5-{3-[(cyclohexyloxy)methyl]phenyl}-1,3-thiazol-2-yl)-2-{[2-(3,5-difluorophenyl)acetyl]amino}-propanamide]",123
10,"C[C@@H](NC(=O)Cc1cc(F)cc(F)c1)C(=O)Nc1ncc(-c2ccccc2COC2CCCCC2)s1 [compound 25, (2R)-N-(5-{2-[(cyclohexyloxy)methyl]phenyl}-1,3-thiazol-2-yl)-2-{[2-(3,5-difluorophenyl)acetyl]amino}-propanamide]",95
11,"Cc1nc(NC(=O)[C@H](C)NC(=O)Cc2cc(F)cc(F)c2)sc1-c1ccccc1COC(C)C [compound 27, (2S)-2-{[2-(3,5-difluorophenyl)acetyl]amino}-N-{5-[2-(isopropoxymethyl)phenyl]-4-methyl-1,3-thiazol-2-yl}propanamide]",74
12,"Cc1nc(NC(=O)[C@H](C)NC(=O)Cc2cc(F)cc(F)c2)sc1-c1ccccc1COC1CCCC1 [compound 28, (2S)-N-(5-{2-[(cyclopentyloxy)methyl]phenyl}-4-methyl-1,3-thiazol-2-yl)-2-{[2-(3,5-difluorophenyl)-acetyl]amino}propanamide]",141
13,"C[C@H](NC(=O)Cc1ccc(F)c(F)c1)C(=O)Nc1ncc(-c2ccccc2COC2CCCCC2)s1 [compound 30, (2S)-N-(5-{2-[(cyclohexyloxy)methyl]phenyl}-1,3-thiazol-2-yl)-2-{[2-(3,4-difluorophenyl)acetyl]amino}-propanamide]",136
14,"CC(C)[C@H](NC(=O)Cc1cc(F)cc(F)c1)C(=O)Nc1ncc(-c2ccccc2COC2CCCCC2)s1 [compound 31, (2S)-N-(5-{2-[(cyclohexyloxy)methyl]phenyl}-1,3-thiazol-2-yl)-2-{[2-(3,5-difluorophenyl)acetyl]amino}-3-methylbutanamide]",87
15,"CC[C@H](NC(=O)Cc1cc(F)cc(F)c1)C(=O)Nc1ncc(-c2ccccc2COC2CCCCC2)s1 [compound 32, (2S)-N-(5-{2-[(cyclohexyloxy)methyl]phenyl}-1,3-thiazol-2-yl)-2-{[2-(3,5-difluorophenyl)acetyl]amino}-butanamide]",68
16,"COc1ccc(CC(=O)N[C@@H](C)C(=O)Nc2ncc(-c3ccccc3COC3CCCCC3)s2)cc1 [compound 33, (2S)-N-(5-{2-[(cyclohexyloxy)methyl]phenyl}-1,3-thiazol-2-yl)-2-{[2-(4-methoxyphenyl)acetyl]amino}-propanamide]",74
17,"COc1cccc(CC(=O)N[C@@H](C)C(=O)Nc2ncc(-c3ccccc3COC3CCCCC3)s2)c1 [compound 34, (2S)-N-(5-{2-[(cyclohexyloxy)methyl]phenyl}-1,3-thiazol-2-yl)-2-{[2-(3-methoxyphenyl)acetyl]amino}-propanamide]",94
18,"COc1cc(CC(=O)N[C@@H](C)C(=O)Nc2ncc(-c3ccccc3COC3CCCCC3)s2)cc(OC)c1 [compound 35, (2S)-N-(5-{2-[(cyclohexyloxy)methyl]phenyl}-1,3-thiazol-2-yl)-2-{[2-(3,5-dimethoxyphenyl)acetyl]amino}-propanamide]",73
19,"CC(C)C[C@H](NC(=O)Cc1cc(F)cc(F)c1)C(=O)Nc1ncc(-c2ccccc2COC2CCCCC2)s1 [compound 36, (2S)-N-(5-{2-[(cyclohexyloxy)methyl]phenyl}-1,3-thiazol-2-yl)-2-{[2-(3,5-difluorophenyl)acetyl]amino}-4-methylpentanamide]",67
20,"CC(C)(C)[C@H](NC(=O)Cc1cc(F)cc(F)c1)C(=O)Nc1ncc(-c2ccccc2COC2CCCCC2)s1 [compound 37, (2S)-N-(5-{2-[(cyclohexyloxy)methyl]phenyl}-1,3-thiazol-2-yl)-2-{[2-(3,5-difluorophenyl)acetyl]amino}-3,3-dimethylbutanamide]",73

# Next, values leading:
row,melting point [°C],SMILES
1,155,"C[C@H](NC(=O)Cc1cc(F)cc(F)c1)C(=O)Nc1ncc(-c2ccc(COC3CCCCC3)cc2)s1 [compound 39, (2S)-N-(5-{4-[(cyclohexyloxy)methyl]phenyl}-1,3-thiazol-2-yl)-2-{[2-(3,5-difluorophenyl)acetyl]amino}-propanamide]"
2,173,"CCOCc1ccccc1-c1cnc(NC(=O)[C@H](C)NC(=O)Cc2cc(F)cc(F)c2)s1 [compound 41, (2S)-2-{[2-(3,5-difluorophenyl)acetyl]amino)-N-(5-[2-(ethoxymethyl)phenyl]-1,3-thiazol-2-yl}propanamide]"
3,134,"CCC[C@H](NC(=O)Cc1cc(F)cc(F)c1)C(=O)Nc1ncc(-c2ccccc2COC2CCCCC2)s1 [compound 42, (2S)-N-(5-{2-[(cyclohexyloxy)methyl]phenyl}-1,3-thiazol-2-yl)-2-{[2-(3,5-difluorophenyl)acetyl]amino}-pentanamide]"
4,144,"C[C@H](NC(=O)Cc1cc(F)cc(F)c1)C(=O)Nc1ncc(-c2cccc(COCC3CCCCC3)c2)s1 [compound 43, (2S)-N-(5-{3-[(cyclohexylmethoxy)methyl]phenyl}-1,3-thiazol-2-yl)-2-{[2-(3,5-difluorophenyl)acetyl]amino}propanamide]"
5,136,"CC(C)OCc1cccc(-c2cnc(NC(=O)[C@H](C)NC(=O)Cc3cc(F)cc(F)c3)s2)c1 [compound 45, (2S)-2-{[2-(3,5-difluorophenyl)acetyl]amino}-N-(5-{3-(isopropoxymethyl)phenyl}-1,3-thiazol-2-yl)propanamide]"
6,166,"C[C@H](NC(=O)Cc1cc(F)cc(F)c1)C(=O)Nc1ncc(-c2ccc(COCC3CCCCC3)cc2)s1 [compound 46, (2S)-N-(5-{4-[(cyclohexylmethoxy)methyl]phenyl}-1,3-thiazol-2-yl)-2-{[2-(3,5-difluorophenyl)acetyl]-amino}propanamide]"
7,77.6,"CCCC[C@H](NC(=O)Cc1cc(F)cc(F)c1)C(=O)Nc1ncc(-c2ccccc2COC2CCCCC2)s1 [compound 47, (2S)-N-(5-{2-[(cyclohexyloxy)methyl]phenyl}-1,3-thiazol-2-yl)-2-{[2-(3,5-difluorophenyl)acetyl]amino}-hexanamide]"
8,60,"C[C@H](NC(=O)Cc1cccc(OC(F)(F)F)c1)C(=O)Nc1ncc(-c2ccccc2COC2CCCCC2)s1 [compound 48, (2S)-N-(5-{2-[(cyclohexyloxy)methyl]phenyl}-1,3-thiazol-2-yl)-2-{[2-(3-trifluoromethoxyphenyl)acetyl]-amino}propanamide]"
9,236,"C[C@H](NC(=O)Cc1cc(F)cc(F)c1)C(=O)Nc1ncc(-c2ccccc2COC2CCCC2)s1 [compound 49, (2S)-N-(5-{2-[(cyclopentyloxy)methyl]phenyl}-1,3-thiazol-2-yl)-2-{[2-(3,5-difluorophenyl)acetyl]amino}-propanamide]"
10,94,"CCC[C@H](NC(=O)Cc1cc(F)cc(F)c1)C(=O)Nc1nc(C)c(-c2ccccc2COC2CCCCC2)s1 [compound 52, (2S)-N-(5-{2-[(cyclohexyloxy)methyl]phenyl}-4-methyl-1,3-thiazol-2-yl)-2-{[2-(3,5-difluorophenyl)-acetyl]amino}pentanamide]"
11,99.4,"CCC[C@H](NC(=O)[C@H](O)c1cc(F)cc(F)c1)C(=O)Nc1nc(C)c(-c2ccccc2COC2CCCCC2)s1 [compound 53, (2S)-N-(5-{2-[(cyclohexyloxy)methyl]phenyl}-4-methyl-1,3-thiazol-2-yl)-2-{[(2R)-2-(3,5-difluorophenyl)-2-hydroxyacetyl]amino}pentanamide]"
